# Source: US10004701B2, “Methods and compositions for treating infection” (UNIVERSITY OF ROCHESTER, priority 2012, dated 2018)
# Structures can show the parent of a compound that is named as a salt. Where two headings read alike, the source gives them in different places.
# What was measured:
# Assay in all cases: AK assay 384-well format, Prestwick library screening
# [1] = test system: E. coli; format: cell-based, Escherichia coli; settings: Escherichia coli, 3 h
# [2] = test system: P. aeruginosa; format: cell-based, Pseudomonas aeruginosa; settings: Pseudomonas aeruginosa, 3 h
# [3] = test system: K. pneumoniae; format: cell-based, Klebsiella pneumoniae; settings: Klebsiella pneumoniae, 3 h
# [4] = test system: S. aureus strain USA300-0114; format: cell-based, Staphylococcus aureus; settings: Staphylococcus aureus, USA300, 3 h
# [5] = test system: E. faecium; format: cell-based, Enterococcus faecium; settings: Enterococcus faecium, 3 h
# [6] = test system: A. baumannii strain 98-37-09; format: cell-based, Acinetobacter baumannii; settings: Acinetobacter baumannii, 983709, 3 h
# [7] = test system: E. cloacae; format: cell-based, Enterobacter cloacae; settings: Enterobacter cloacae, 3 h
# [8] = planktonic E. coli, 50 μM final drug concentration, positive cutoff 3-fold increase, read-out: AK-based Prestwick library screening result, E. coli (fold increase in extracellular AK activity)
# [9] = planktonic P. aeruginosa, 50 μM final drug concentration, positive cutoff 3-fold increase, read-out: AK-based Prestwick library screening result, P. aeruginosa (fold increase in extracellular AK activity)
# [10] = planktonic K. pneumoniae, 50 μM final drug concentration, positive cutoff 3-fold increase, read-out: AK-based Prestwick library screening result, K. pneumoniae (fold increase in extracellular AK activity)
# [11] = planktonic S. aureus, 50 μM final drug concentration, positive cutoff 3-fold increase, read-out: AK-based Prestwick library screening result, S. aureus (fold increase in extracellular AK activity)
# [12] = planktonic E. faecium, 50 μM final drug concentration, positive cutoff 3-fold increase, read-out: AK-based Prestwick library screening result, E. faecium (fold increase in extracellular AK activity)
# [13] = planktonic A. baumannii, 50 μM final drug concentration, positive cutoff 3-fold increase, read-out: AK-based Prestwick library screening result, A. baumannii (fold increase in extracellular AK activity)
# [14] = planktonic E. cloacae, 50 μM final drug concentration, positive cutoff 3-fold increase, read-out: AK-based Prestwick library screening result, E. cloacae (fold increase in extracellular AK activity)
# [15] = 50 μM final drug concentration, planktonic, cutoff for positive 3-fold increase, read-out: AK-based Prestwick Library Screening Results, E. coli (fold increase in extracellular AK activity)
# [16] = 50 μM final drug concentration, planktonic, cutoff for positive 3-fold increase, read-out: AK-based Prestwick Library Screening Results, P. aeruginosa (fold increase in extracellular AK activity)
# [17] = 50 μM final drug concentration, planktonic, cutoff for positive 3-fold increase, read-out: AK-based Prestwick Library Screening Results, K. pneumoniae (fold increase in extracellular AK activity)
# [18] = 50 μM final drug concentration, planktonic, cutoff for positive 3-fold increase, read-out: AK-based Prestwick Library Screening Results, S. aureus (fold increase in extracellular AK activity)
# [19] = 50 μM final drug concentration, planktonic, cutoff for positive 3-fold increase, read-out: AK-based Prestwick Library Screening Results, E. faecium (fold increase in extracellular AK activity)
# [20] = 50 μM final drug concentration, planktonic, cutoff for positive 3-fold increase, read-out: AK-based Prestwick Library Screening Results, A. baumannii (fold increase in extracellular AK activity)
# [21] = 50 μM final drug concentration, planktonic, cutoff for positive 3-fold increase, read-out: AK-based Prestwick Library Screening Results, E. cloacae (fold increase in extracellular AK activity)
# [22] = 50 μM final drug concentration, cutoff for positive-scoring molecules 3-fold increase, read-out: AK-based Prestwick Library Screening Results, E. coli (fold increase in extracellular AK activity)
# [23] = 50 μM final drug concentration, cutoff for positive-scoring molecules 3-fold increase, read-out: AK-based Prestwick Library Screening Results, P. aeruginosa (fold increase in extracellular AK activity)
# [24] = 50 μM final drug concentration, cutoff for positive-scoring molecules 3-fold increase, read-out: AK-based Prestwick Library Screening Results, K. pneumoniae (fold increase in extracellular AK activity)
# [25] = 50 μM final drug concentration, cutoff for positive-scoring molecules 3-fold increase, read-out: AK-based Prestwick Library Screening Results, S. aureus (fold increase in extracellular AK activity)
# [26] = 50 μM final drug concentration, cutoff for positive-scoring molecules 3-fold increase, read-out: AK-based Prestwick Library Screening Results, E. faecium (fold increase in extracellular AK activity)
# [27] = 50 μM final drug concentration, cutoff for positive-scoring molecules 3-fold increase, read-out: AK-based Prestwick Library Screening Results, A. baumannii (fold increase in extracellular AK activity)
# [28] = 50 μM final drug concentration, cutoff for positive-scoring molecules 3-fold increase, read-out: AK-based Prestwick Library Screening Results, E. cloacae (fold increase in extracellular AK activity)
# [29] = 50 μM final drug concentration, 384-well format, cutoff for positive-scoring molecules 3-fold increase, read-out: AK-based Prestwick Library Screening Results, E. coli (increase in extracellular AK activity)
# [30] = 50 μM final drug concentration, 384-well format, cutoff for positive-scoring molecules 3-fold increase, read-out: AK-based Prestwick Library Screening Results, P. aeruginosa (increase in extracellular AK activity)
# [31] = 50 μM final drug concentration, 384-well format, cutoff for positive-scoring molecules 3-fold increase, read-out: AK-based Prestwick Library Screening Results, K. pneumoniae (increase in extracellular AK activity)
# [32] = 50 μM final drug concentration, 384-well format, cutoff for positive-scoring molecules 3-fold increase, read-out: AK-based Prestwick Library Screening Results, S. aureus (increase in extracellular AK activity)
# [33] = 50 μM final drug concentration, 384-well format, cutoff for positive-scoring molecules 3-fold increase, read-out: AK-based Prestwick Library Screening Results, E. faecium (increase in extracellular AK activity)
# [34] = 50 μM final drug concentration, 384-well format, cutoff for positive-scoring molecules 3-fold increase, read-out: AK-based Prestwick Library Screening Results, A. baumannii (increase in extracellular AK activity)
# [35] = 50 μM final drug concentration, 384-well format, cutoff for positive-scoring molecules 3-fold increase, read-out: AK-based Prestwick Library Screening Results, E. cloacae (increase in extracellular AK activity)
smiles,measurement,setting,value
COc1ccc2c(c1)C(=O)N(CCc1ccc(S(=O)(=O)NC(=O)NC3CCCCC3)cc1)C(=O)C2(C)C [Gliquidone],fold induction at 50 µM,[1]; [8],0.8
same,fold induction at 50 µM,[2]; [9],0.8
same,fold induction at 50 µM,[3]; [10],0.7
same,fold induction at 50 µM,[4]; [11],0.5
same,fold induction at 50 µM,[5]; [12],0.9
same,fold induction at 50 µM,[6]; [13],0.7
same,fold induction at 50 µM,[7]; [14],1.1
CCN(CC)CCOCCOC(=O)C1(c2ccccc2)CCCC1 [Carbetapentane citrate],fold induction at 50 µM,[1]; [15],1.4
same,fold induction at 50 µM,[2]; [16],1.2
same,fold induction at 50 µM,[3]; [17],1
same,fold induction at 50 µM,[4]; [18],1.1
same,fold induction at 50 µM,[5]; [19],1
same,fold induction at 50 µM,[6]; [20],1.4
same,fold induction at 50 µM,[7]; [21],1.4
CCN(CC)CCNC(=O)c1cc(Br)c(N)cc1OC [Bromopride],fold induction at 50 µM,[1]; [22],1.3
same,fold induction at 50 µM,[2]; [23],1.1
same,fold induction at 50 µM,[3]; [24],1
same,fold induction at 50 µM,[4]; [25],1.3
same,fold induction at 50 µM,[5]; [26],0.9
same,fold induction at 50 µM,[6]; [27],1.3
same,fold induction at 50 µM,[7]; [28],1.3
CC(N)C(O)c1ccccc1 (stereo not drawn) [Phenylpropanolamine hydrochloride],fold induction at 50 µM,[1]; read-out: AK-based Prestwick Library Screening Results: E. coli (increase in extracellular AK activity),0.5
same,fold induction at 50 µM,[2]; read-out: AK-based Prestwick Library Screening Results: P. aeruginosa (increase in extracellular AK activity),0.4
same,fold induction at 50 µM,[3]; read-out: AK-based Prestwick Library Screening Results: K. pneumoniae (increase in extracellular AK activity),0.5
same,fold induction at 50 µM,[4]; read-out: AK-based Prestwick Library Screening Results: S. aureus (increase in extracellular AK activity),0.3
same,fold induction at 50 µM,[5]; read-out: AK-based Prestwick Library Screening Results: E. faecium (increase in extracellular AK activity),0.8
same,fold induction at 50 µM,[6]; read-out: AK-based Prestwick Library Screening Results: A. baumannii (increase in extracellular AK activity),0.4
same,fold induction at 50 µM,[7]; read-out: AK-based Prestwick Library Screening Results: E. cloacae (increase in extracellular AK activity),0.4
NC(=O)NC1NC(=O)NC1=O (stereo not drawn) [Allantoin],fold induction at 50 µM,[1]; [29],0.4
same,fold induction at 50 µM,[2]; [30],0.3
same,fold induction at 50 µM,[3]; [31],0.4
same,fold induction at 50 µM,[4]; [32],1.4
same,fold induction at 50 µM,[5]; [33],0.7
same,fold induction at 50 µM,[6]; [34],0.4
same,fold induction at 50 µM,[7]; [35],0.3
CCCC1O[C@@H]2C[C@H]3[C@@H]4CCC5=CC(=O)C=C[C@]5(C)[C@H]4[C@@H](O)C[C@]3(C)[C@]2(C(=O)CO)O1 (stereo partly drawn) [Budesonide],fold induction at 50 µM,"[1]; planktonic E. coli, 50 μM final drug concentration, cutoff for positive-scoring molecules 3-fold increase, read-out: AK-based Prestwick Library Screening Results, E. coli (increase in extracellular AK activity)",0.9
same,fold induction at 50 µM,"[2]; planktonic P. aeruginosa, 50 μM final drug concentration, cutoff for positive-scoring molecules 3-fold increase, read-out: AK-based Prestwick Library Screening Results, P. aeruginosa (increase in extracellular AK activity)",0.9
same,fold induction at 50 µM,"[3]; planktonic K. pneumoniae, 50 μM final drug concentration, cutoff for positive-scoring molecules 3-fold increase, read-out: AK-based Prestwick Library Screening Results, K. pneumoniae (increase in extracellular AK activity)",0.7
same,fold induction at 50 µM,"[4]; planktonic S. aureus, 50 μM final drug concentration, cutoff for positive-scoring molecules 3-fold increase, read-out: AK-based Prestwick Library Screening Results, S. aureus (increase in extracellular AK activity)",0.6
same,fold induction at 50 µM,"[5]; planktonic E. faecium, 50 μM final drug concentration, cutoff for positive-scoring molecules 3-fold increase, read-out: AK-based Prestwick Library Screening Results, E. faecium (increase in extracellular AK activity)",0.9
same,fold induction at 50 µM,"[6]; planktonic A. baumannii, 50 μM final drug concentration, cutoff for positive-scoring molecules 3-fold increase, read-out: AK-based Prestwick Library Screening Results, A. baumannii (increase in extracellular AK activity)",0.9
same,fold induction at 50 µM,"[7]; planktonic E. cloacae, 50 μM final drug concentration, cutoff for positive-scoring molecules 3-fold increase, read-out: AK-based Prestwick Library Screening Results, E. cloacae (increase in extracellular AK activity)",1.4
O=C(CCNNC(=O)c1ccncc1)NCc1ccccc1 [Nialamide],fold induction at 50 µM,[1]; [8],1.2
same,fold induction at 50 µM,[2]; [9],1.2
same,fold induction at 50 µM,[3]; [10],0.9
same,fold induction at 50 µM,[4]; [11],1.2
same,fold induction at 50 µM,[5]; [12],1.1
same,fold induction at 50 µM,[6]; [13],1
same,fold induction at 50 µM,[7]; [14],1.4
COc1ccccc1OCC(O)CN1CCN(CC(=O)Nc2c(C)cccc2C)CC1 (stereo not drawn) [Ranolazine],fold induction at 50 µM,[1]; [8],1.2
same,fold induction at 50 µM,[2]; [9],1
same,fold induction at 50 µM,[3]; [10],0.9
same,fold induction at 50 µM,[4]; [11],1
same,fold induction at 50 µM,[5]; [12],0.9
same,fold induction at 50 µM,[6]; [13],1.2
same,fold induction at 50 µM,[7]; [14],1.4
CC(=O)OCC(=O)[C@@]1(O)CC[C@H]2[C@@H]3CCC4=CC(=O)C=C[C@]4(C)[C@@]3(F)[C@@H](O)C[C@@]21C [Isoflupredone acetate],fold induction at 50 µM,[1]; [29],0.5
same,fold induction at 50 µM,[2]; [30],0.4
same,fold induction at 50 µM,[3]; [31],0.5
same,fold induction at 50 µM,[4]; [32],0.4
same,fold induction at 50 µM,[5]; [33],0.9
same,fold induction at 50 µM,[6]; [34],0.4
same,fold induction at 50 µM,[7]; [35],0.4
C[C@H]1[C@H]2CC[C@H]3[C@@H]4CC=C5C[C@@H](N(C)C)CC[C@]5(C)[C@H]4CC[C@]23CN1C [Conessine],fold induction at 50 µM,[1]; [15],1.5
same,fold induction at 50 µM,[2]; [16],1.2
same,fold induction at 50 µM,[3]; [17],1.2
same,fold induction at 50 µM,[4]; [18],1.2
same,fold induction at 50 µM,[5]; [19],1.1
same,fold induction at 50 µM,[6]; [20],1.4
same,fold induction at 50 µM,[7]; [21],1.6
CO/N=C(\C(=O)N[C@@H]1C(=O)N2C(C(=O)O)=C(COC(N)=O)CS[C@H]12)c1ccco1 [Cefuroxime sodium salt],fold induction at 50 µM,[1]; [22],12.1
same,fold induction at 50 µM,[2]; [23],1.6
same,fold induction at 50 µM,[3]; [24],2.4
same,fold induction at 50 µM,[4]; [25],3.4
same,fold induction at 50 µM,[5]; [26],1
same,fold induction at 50 µM,[6]; [27],1.4
same,fold induction at 50 µM,[7]; [28],1.6
CCCNC(C)C(=O)Nc1ccccc1C (stereo not drawn) [Prilocaine hydrochloride],fold induction at 50 µM,[1]; [29],0.9
same,fold induction at 50 µM,[2]; [30],0.9
same,fold induction at 50 µM,[3]; [31],0.7
same,fold induction at 50 µM,[4]; [32],0.8
same,fold induction at 50 µM,[5]; [33],0.9
same,fold induction at 50 µM,[6]; [34],0.9
same,fold induction at 50 µM,[7]; [35],1.3
